Test results reported in patent publication US20020019536A1, “NEW URETHANES, THIO AND DITHIO ANALOGUES AND THEIR USE AS INHIBITORS OF CHOLESTEROL BIOSYNTHESIS” (priority 1997, published 2002).
One block for each molecule: values may come before it.

Key:
[1] = target: T1, 2,3-epoxysqualene-lanosterol-cyclase (Rattus norvegicus, UniProt P48450); experiment: In-vivo activity in the rat after oral administration: 2,3-epoxysqualene level in the liver
T1 construct: Measuring the in-vivo Activity in the Rat after Oral Administration; from tissue; host or cells: living rat; 2,3-epoxysqualene measured in the liver
T1 sequence (P48450 1-733): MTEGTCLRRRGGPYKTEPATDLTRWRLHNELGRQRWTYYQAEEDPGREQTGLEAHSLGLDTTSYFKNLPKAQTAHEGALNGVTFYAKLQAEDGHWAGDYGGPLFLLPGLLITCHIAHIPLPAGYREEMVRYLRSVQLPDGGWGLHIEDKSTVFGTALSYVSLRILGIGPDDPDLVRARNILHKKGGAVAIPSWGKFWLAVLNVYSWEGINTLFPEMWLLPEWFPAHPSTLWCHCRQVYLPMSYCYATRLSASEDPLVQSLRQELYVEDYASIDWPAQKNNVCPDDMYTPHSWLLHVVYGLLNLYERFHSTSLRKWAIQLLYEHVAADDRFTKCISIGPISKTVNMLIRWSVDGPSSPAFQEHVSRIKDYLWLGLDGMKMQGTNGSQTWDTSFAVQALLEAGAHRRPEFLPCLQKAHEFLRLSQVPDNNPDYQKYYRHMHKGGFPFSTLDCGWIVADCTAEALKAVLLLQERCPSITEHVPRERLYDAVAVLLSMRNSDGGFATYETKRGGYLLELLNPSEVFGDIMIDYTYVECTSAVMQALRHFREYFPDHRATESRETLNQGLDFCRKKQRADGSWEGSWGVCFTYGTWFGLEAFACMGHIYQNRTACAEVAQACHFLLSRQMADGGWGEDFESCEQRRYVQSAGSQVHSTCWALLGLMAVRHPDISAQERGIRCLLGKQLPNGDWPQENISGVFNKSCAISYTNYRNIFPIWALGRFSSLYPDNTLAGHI
Experimental: II. Measuring the in-vivo Activity in the Rat after Oral Administration
Inhibiting the enzyme 2,3-epoxysqualene-lanosterol-cyclase causes an increase in the 2,3-epoxisqualene levels in the liver and plasma. The quantity of 2,3-epoxysqualene formed therefore serves as a direct measurement of the potency on the animal as a whole. The amounts were determined using the method described in J. Lipid. Res. 38, 564-575, [1997] at t=3 or 8 hours after administration of the substance in concentrations of c=0.01, 0.03, 0.1, 0.3 and 1.0 mg/kg. Table 3 which follows gives the results obtained for the abovementioned substances A, B, C, E, G, H, O and R by way of example.
In the control animals there were no measurable 2,3-epoxisqualene levels under these conditions.

[2] = test system: 14C-acetate incorporation into the steroids which can be precipitated with digitonin (cholesterol biosynthesis); experiment: Inhibition of 14C-acetate incorporation into the steroids which can be precipitated with digitonin; type: cell-based; details: for IC50: 14C-acetate incorporation
From the text: I. Measuring the Inhibition of ^14C-acetate incorporation into the steroids which can be precipitated with digitonin: The inhibitory effect was investigated using the method described in J. Lipid. Res. 37, 148-157 [1996] at test concentrations of 10^−8 and 10^−9 mol/l.

Pen. notatum CBS 19746 = experiment: Fungistatic activity, series dilution test; type: cell-based; details: Sabouraud broth, 2 to 4 days at 26° C.
Experimental: (§1) V. Determining the Fungistatic Activity
(§2) The fungistatic activity was determined by the series dilution test (microtitre system). Sabouraud broth was used as the nutrient medium. The inoculum amounted to about 10^4 to 10^5 CFU/ml (CFU=colony-forming units); the incubation period was 2 to 4 days at 26° C.
(§3) The lowest concentration which allows no visible growth (minimum inhibitory concentration MIC) was determined.
(§4) The abovementioned compounds B, E, G, I, K, L, N, Q and R were tested. The MIC is given in μg/ml.

[3] = test system: Sacch. carisbergensis ATCC 9080; experiment: Fungistatic activity, series dilution test; type: cell-based; details: Sabouraud broth, 2 to 4 days at 26° C.
Experimental: as §1, §2, §3, §4

Asp. niger ATCC 16404 = experiment: Fungistatic activity, series dilution test; type: cell-based; details: Sabouraud broth, 2 to 4 days at 26° C.
Experimental: as §1, §2, §3, §4

Rhod. rubra 49 = experiment: Fungistatic activity, series dilution test; type: cell-based; details: Sabouraud broth, 2 to 4 days at 26° C.
Experimental: as §1, §2, §3, §4

[4] = test system: Cand. albicans ATCC 10231; experiment: Fungistatic activity, series dilution test; type: cell-based; details: Sabouraud broth, 2 to 4 days at 26° C.
Experimental: as §1, §2, §3, §4

[5] = test system: Trich. mentagrophytes ATCC 9129; experiment: Fungistatic activity, series dilution test; type: cell-based; details: Sabouraud broth, 2 to 4 days at 26° C.
Experimental: as §1, §2, §3, §4

[6] = Lipid reduction in the normolipaemic golden hamster; type: in vivo; details: dose 5.87 mg/kg/day, compared with control group
Experimental: III. Lipid Reduction in the Normolipaemic Golden Hamster This was determined using the method described in J. Lipid. Res. 38, 564-575, (1997). At the end of the experiment the total cholesterol, β-lipoprotein-cholesterol and HDL-cholesterol were determined and compared with the values of a control group which were fed without any test substance. The lipid-lowering activity of the abovementioned compounds E, G and I was tested.

[7] = 0.01 mg/kg oral, 3 h after administration
[8] = 0.01 mg/kg oral, 8 h after administration
[9] = 0.03 mg/kg oral, 3 h after administration
[10] = 0.03 mg/kg oral, 8 h after administration
[11] = 0.1 mg/kg oral, 3 h after administration
[12] = 0.1 mg/kg oral, 8 h after administration
[13] = 1.0 mg/kg oral, 3 h after administration
[14] = 1.0 mg/kg oral, 8 h after administration
[15] = 0.3 mg/kg oral, 3 h after administration
[16] = 0.3 mg/kg oral, 8 h after administration

- 2,3-epoxysqualene concentration in the liver (rat) [1, 7]: 0.0 µg/g
- 2,3-epoxysqualene concentration in the liver (rat) [1, 8]: 14.6 µg/g
- 2,3-epoxysqualene concentration in the liver (rat) [1, 9]: 11.8 µg/g
- 2,3-epoxysqualene concentration in the liver (rat) [1, 10]: 66.0 µg/g
- 2,3-epoxysqualene concentration in the liver (rat) [1, 11]: 62.6 µg/g
- 2,3-epoxysqualene concentration in the liver (rat) [1, 12]: 312.5 µg/g
- 2,3-epoxysqualene concentration in the liver (rat) [1, 13]: 136.5 µg/g
- 2,3-epoxysqualene concentration in the liver (rat) [1, 14]: 291.9 µg/g
Compound: CN(C)Cc1ccc([C@H]2CC[C@H](N(C)C(=S)Sc3ccc(Cl)cc3)CC2)cc1 [A, trans-S-(4-chlorophenyl)-N-4-[4-(dimethylaminomethyl)-phenyl]cyclohexyl-N-methyldithiocarbamate]
- percentage inhibition of 14C-acetate incorporation ([2]; test concentration 10^−8 mol/l): −85%
- percentage inhibition of 14C-acetate incorporation ([2]; test concentration 10^−9 mol/l): −39%

- 2,3-epoxysqualene concentration in the liver (rat) [1, 7]: 0.0 µg/g
- 2,3-epoxysqualene concentration in the liver (rat) [1, 8]: 84.8 µg/g
- 2,3-epoxysqualene concentration in the liver (rat) [1, 9]: 33.1 µg/g
- 2,3-epoxysqualene concentration in the liver (rat) [1, 10]: 57.8 µg/g
- 2,3-epoxysqualene concentration in the liver (rat) [1, 11]: 47.0 µg/g
- 2,3-epoxysqualene concentration in the liver (rat) [1, 12]: 133.1 µg/g
- 2,3-epoxysqualene concentration in the liver (rat) [1, 15]: 77.8 µg/g
- 2,3-epoxysqualene concentration in the liver (rat) [1, 16]: 196.5 µg/g
- 2,3-epoxysqualene concentration in the liver (rat) [1, 13]: 68.1 µg/g
- 2,3-epoxysqualene concentration in the liver (rat) [1, 14]: 243.9 µg/g
Compound: CN(C)Cc1ccc([C@H]2CC[C@H](N(C)C(=S)SCc3ccc(F)cc3)CC2)cc1.Cl [C, trans-S-(4-fluorobenzyl)-N-4-[4-(dimethylaminomethyl)-phenyl]cyclohexyl-N-methyldithiocarbamate-hydrochloride]
- percentage inhibition of 14C-acetate incorporation ([2]; test concentration 10^−8 mol/l): −87%
- percentage inhibition of 14C-acetate incorporation ([2]; test concentration 10^−9 mol/l): −52%

Compound: CN(C)Cc1ccc([C@H]2CC[C@H](N(C)C(=S)SCc3ccc(Cl)cc3)CC2)cc1.Cl [D, trans-S-(4-chlorobenzyl)-N-4-[4-(dimethylaminomethyl)-phenyl]cyclohexyl-N-methyldithiocarbamate-hydrochloride]
- percentage inhibition of 14C-acetate incorporation ([2]; test concentration 10^−8 mol/l): −85%
- percentage inhibition of 14C-acetate incorporation ([2]; test concentration 10^−9 mol/l): −51%

Compound: CN(C)Cc1ccc([C@H]2CC[C@@H](N(C)C(=S)SCc3ccccc3)CC2)cc1.Cl [F, cis-S-benzyl-N-4-[4-(dimethylaminomethyl)phenyl]-cyclohexyl-N-methyldithiocarbamate-hydrochloride]
- percentage inhibition of 14C-acetate incorporation ([2]; test concentration 10^−8 mol/l): −83%
- percentage inhibition of 14C-acetate incorporation ([2]; test concentration 10^−9 mol/l): −40%

- 2,3-epoxysqualene concentration in the liver (rat) [1, 7]: 2.9 µg/g
- 2,3-epoxysqualene concentration in the liver (rat) [1, 8]: 31.3 µg/g
- 2,3-epoxysqualene concentration in the liver (rat) [1, 9]: 25.7 µg/g
- 2,3-epoxysqualene concentration in the liver (rat) [1, 10]: 25.3 µg/g
- 2,3-epoxysqualene concentration in the liver (rat) [1, 11]: 117.7 µg/g
- 2,3-epoxysqualene concentration in the liver (rat) [1, 12]: 202.3 µg/g
- 2,3-epoxysqualene concentration in the liver (rat) [1, 15]: 70.3 µg/g
- 2,3-epoxysqualene concentration in the liver (rat) [1, 16]: 112.6 µg/g
Compound: CN(C)Cc1ccc([C@H]2CC[C@H](N(C)C(=O)Sc3ccc(Cl)cc3)CC2)cc1.Cl [H, trans-S-(4-chlorophenyl)-N-4-[4-(dimethylaminomethyl)-phenyl]cyclohexyl-N-methylthiocarbamate-hydrochloride]
- IC50 [2]: 0.5 nM
- percentage inhibition of 14C-acetate incorporation ([2]; test concentration 10^−8 mol/l): −87%
- percentage inhibition of 14C-acetate incorporation ([2]; test concentration 10^−9 mol/l): −65%

Compound: CN(C(=O)Oc1ccc(Cl)cc1)[C@H]1CC[C@H](c2ccc(CN3CCCC3)cc2)CC1.Cl [K, trans-O-(4-chlorophenyl)-N-methyl-N-4-[4-(pyrrolidinomethyl)phenyl]cyclohexylcarbamate-hydrochloride]
- MIC Pen. (Pen. notatum CBS 19746): 8 µg/mL
- MIC Sacc. [3]: 128 µg/mL
- MIC Asp. (Asp. niger ATCC 16404): 16 µg/mL
- MIC Rhod. (Rhod. rubra 49): 32 µg/mL
- MIC Cand. [4]: 64 µg/mL
- MIC Trich. [5]: 2 µg/mL
- percentage inhibition of 14C-acetate incorporation ([2]; test concentration 10^−8 mol/l): −81%
- percentage inhibition of 14C-acetate incorporation ([2]; test concentration 10^−9 mol/l): −53%

Compound: CCN(CC)Cc1ccc([C@H]2CC[C@H](N(C)C(=O)Oc3ccc(Cl)cc3)CC2)cc1.Cl [L, trans-O-(4-chlorophenyl)-N-4-[4-(diethylaminomethyl)-phenyl]cyclohexyl-N-methylcarbamate-hydrochloride]
- MIC Pen. (Pen. notatum CBS 19746): 64 µg/mL
- MIC Sacc. [3]: 128 µg/mL
- MIC Asp. (Asp. niger ATCC 16404): 32 µg/mL
- MIC Rhod. (Rhod. rubra 49): 8 µg/mL
- MIC Cand. [4]: 32 µg/mL
- MIC Trich. [5]: 1 µg/mL
- percentage inhibition of 14C-acetate incorporation ([2]; test concentration 10^−8 mol/l): −83%
- percentage inhibition of 14C-acetate incorporation ([2]; test concentration 10^−9 mol/l): −53%

Compound: C=CCN(C)Cc1ccc([C@H]2CC[C@H](N(C)C(=O)Oc3ccc(Cl)cc3)CC2)cc1 [M, trans-O-(4-chlorophenyl)-N-methyl-N-4-[4-(N-methyl-N-allylaminomethyl)phenyl]cyclohexylcarbamate]
- percentage inhibition of 14C-acetate incorporation ([2]; test concentration 10^−8 mol/l): −93%
- percentage inhibition of 14C-acetate incorporation ([2]; test concentration 10^−9 mol/l): −74%

Compound: Cc1ccc(OC(=O)N(C)[C@H]2CC[C@H](c3ccc(CN(C)C)cc3)CC2)cc1.Cl [O, trans-N-4-[4-(dimethylaminomethyl)phenyl]cyclohexyl-N-methyl-O-(4-methylphenyl)carbamate-hydrochloride]
- 2,3-epoxysqualene concentration in the liver (rat) [1, 11]: 53.4 µg/g
- 2,3-epoxysqualene concentration in the liver (rat) [1, 12]: 94.3 µg/g
- 2,3-epoxysqualene concentration in the liver (rat) [1, 15]: 72.6 µg/g
- 2,3-epoxysqualene concentration in the liver (rat) [1, 16]: 113.2 µg/g
- 2,3-epoxysqualene concentration in the liver (rat) [1, 13]: 117.9 µg/g
- 2,3-epoxysqualene concentration in the liver (rat) [1, 14]: 224.8 µg/g
- IC50 [2]: 0.8 nM
- percentage inhibition of 14C-acetate incorporation ([2]; test concentration 10^−8 mol/l): −83%
- percentage inhibition of 14C-acetate incorporation ([2]; test concentration 10^−9 mol/l): −57%
- HDL-cholesterol [6]: −12.7%
- Total cholesterol [6]: −17.3%
- β-Lipoprotein-cholesterol [6]: −22.5%

Compound: Cc1ccc(OC(=S)N(C)[C@H]2CC[C@H](c3ccc(CN(C)C)cc3)CC2)cc1.Cl [P, trans-N-4-[4-(dimethylaminomethyl)phenyl]cyclohexyl-N-methyl-O-(4-methylphenyl)thiocarbamate-hydrochloride]
- percentage inhibition of 14C-acetate incorporation ([2]; test concentration 10^−8 mol/l): −83%
- percentage inhibition of 14C-acetate incorporation ([2]; test concentration 10^−9 mol/l): −60%

Compound: CN(C)Cc1ccc([C@H]2CC[C@H](N(C)C(=O)c3ccc(Cl)cc3)CC2)cc1 [V, reference compound]
- IC50 [2]: 3.8 nM
- percentage inhibition of 14C-acetate incorporation ([2]; test concentration 10^−8 mol/l): −59%
- percentage inhibition of 14C-acetate incorporation ([2]; test concentration 10^−9 mol/l): −23%

Compound: Cc1ccc(CC(=O)O[C@H]2CC[C@H](c3ccc(CN(C)C)cc3)CC2)cc1 [W, trans-O-(p-tolylacetyl)-4-(4-dimethylaminomethylphenyl)-cyclohexanol, reference compound]
- IC50 [2]: 9.6 nM
- inhibition at 0.01 µM ([2]; test concentration 10^−8 mol/l, read-out: percentage inhibition of 14C-acetate incorporation): 72%
- inhibition at 0.001 µM ([2]; test concentration 10^−9 mol/l, read-out: percentage inhibition of 14C-acetate incorporation): 21%
